Source: BindingDB's records for doi:10.1021/jm00060a014 (Upjohn Laboratories, 1993)
pKi: −log10 of the molar value.

Assay: Binding affinity against [3H]8-OH-DPAT-labeled 5-hydroxytryptamine 1A receptor sites in bovine hippocampus

Structure (SMILES)	pKi
CCCN1CCC2c3c(cccc3OC)CCC21 (stereo not drawn) [9-Methoxy-3-propyl-2,3,3a,4,5,9b-hexahydro-1H-benzo[e]indole]	8.36
CCCN1CCC2c3c(cccc3OC)CC[C@@H]21 (stereo partly drawn) [9-Methoxy-3-propyl-2,3,3a,4,5,9b-hexahydro-1H-benzo[e]indole]	6.73
COc1cccc2c1CC[C@@H]1[C@H]2CCN1CC1CC1 [(3aR,9bS)-3-Cyclopropylmethyl-6-methoxy-2,3,3a,4,5,9b-hexahydro-1H-benzo[e]indole]	< 6.00
